One experiment concerns DSP. The experiment is described as follows: Immunostaining of transplanted tissues for DSP. It is filed as in vivo, immunocompromised mice. An excerpt:
(§1) Briefly, the removed tissues were fixed in 4% paraformaldehyde, decalcified in 10% EDTA (pH 7.4), embedded in paraffin, and then immunostained with anti-DSP and anti-BSP antibodies at a dilution of 1:150 as primary antibodies, and reacted with biotin-labeled goat anti-rabbit IgG (Vector Labs) as secondary antibodies to determine DSP and BSP levels (FIG. 4). In this regard, the tissue transplanted with an implant including none of the peptides of the present invention was used as a control group.
(§2) In this regard, a tissue transplanted with an implant including none of the peptides of the present invention was used as a control group.

For the next experiment, the system named is BSP. The experiment is described as follows: Immunostaining of transplanted tissues for BSP. It is filed as in vivo, immunocompromised mice.
Source text: as §1, §2

Experiment [1] concerns root canal spaces of human teeth. The experiment in a line: Implant transplanted into root canal spaces of human teeth (H-E, SEM). To be noted: 6 weeks. The experiment is classed as in vivo. As to the method: Reportedly, the dentinal wall and the empty pulp cavity of a natural tooth provide the specific local environment for the regeneration of dentin/pulp-like tissues by dental pulp cells (Huang G T, et al. (2010) Tissue engineering. Part A 16(2):605-615). Therefore, formation of dentin/pulp-like tissues in root canal spaces was evaluated.
In detail, among the implants prepared in Example 3-1, a comparative implant or an implant including the peptide of Group 12 (SEQ ID NO: 96) at a concentration of 10 μg/ml was transplanted into the root canal spaces of human teeth for 6 weeks, and dentin dental pulp-like tissues formed in the respective implants were subjected to hematoxylin-eosin (H-E) staining according to the method of Example 3-1, and photographed by a scanning electron microscope according to the method of Example 3-7 (FIG. 9).

Experiment [2] relates to physiologic dentin (tertiary dentin). The experiment in a line: Indirect pulp capping canine model, physiologic (tertiary) dentin formation. To be noted: 1.5 μg, 3 weeks. The experiment is classed as in vivo, dogs. An excerpt: In detail, to establish dentin-damaged canine models by indirect pulp capping, a part of enamel in the cervical part was removed from the premolars of 12-month-old adult dogs by using a dental bur. The dentin was shallowly removed according to the exposure degree of the dentin to form a shallow cavity, thereby establishing a shallow cavity model. The dentin was deeply removed such that the dental pulp was seen through, but not exposed to the outside, thereby establishing a deep cavity model. The models were treated with the control group, the peptide of Group 11, or the peptide of Group 12. 3 weeks later, the adult dogs were euthanized, and teeth were extracted therefrom.
The extracted teeth were fixed in 4% paraformaldehyde for 2.4 hours, washed with PBS (pH 7.4) several times, and then decalcified with 10% formic acid. The decalcified teeth were embedded in paraffin to prepare tissue sections. The tissue sections were stained with hematoxylin/eosin (H&E), and dentin regeneration capabilities were evaluated by histological analysis.

Experiment [3] shares this test system. The experiment in a line: Direct pulp capping canine model, physiologic (tertiary) dentin formation. To be noted: exposed pulp, peptide 1.5 μg, sealed with MTA, covered with GI cement, 3 weeks, FIG. 12. It is filed as in vivo, dogs. As for the experimental part:
In detail, to establish dentin-damaged canine models by direct pulp capping, the enamel and dentin in the cervical part were removed from the premolars of 12-month-old adult dogs by using a dental bur so that the dental pulp was exposed to the outside. The models were treated with the control group, the peptide of Group 11, or the peptide of Group 12. 3 weeks later, the adult dogs were euthanized and teeth were extracted therefrom.
The extracted teeth were fixed in 4% paraformaldehyde for 24 hours, washed with PBS (pH 7.4) several times, and then decalcified with 10% formic acid. The decalcified teeth were embedded in paraffin to prepare tissue sections. The tissue sections were stained with hematoxylin/eosin (H&E), and dentin regeneration capabilities were evaluated by histological analysis.

Where [4] appears, read: 6 weeks after transplantation, FIG. 4.
Setting [5] is: 12 weeks after transplantation, FIG. 7.

Turning to “KYKQKRRSYK (Synthetic construct of novel peptide) [SEQ ID NO: 96]”, the DSP expression level result is “relatively high DSP expression level” in the experiment on DSP (setting [4]) and “relatively very high DSP expression levels” in the experiment on DSP (setting [5]). In addition, the BSP expression level result in the experiment on BSP (setting [4]) and in the experiment with BSP (setting [5]) was “low BSP expression level” each time. Further, the “pulp-like tissue formation inside root canals (H-E)” value in experiment [1] (10 μg/ml, FIG. 9) is recorded as “vascularized pulp-like tissues were formed”. In experiment [1] (FIG. 9 C, D and D′), the “newly formed dentin in root canal (H-E)” value was “newly formed dentin was observed in the existing dentinal wall”. The “odontoblast-like cells on existing dentinal wall (H-E)” value in experiment [1] (FIG. 9 C, D and D′) is “odontoblast-like cells exhibited a palisade arrangement on the existing dentinal wall”. Further, the “odontoblast-like cells on existing dentinal wall (scanning microscopic images)” value in experiment [1] (FIG. 9 G and H) was “odontoblast-like cells exhibited a palisade arrangement on the existing dentinal wall”. For the same sequence, the “dentin regeneration (histological analysis, H&E)” value is “regeneration of physiologic tertiary dentin (TD) which was continuous with the odontoblast processes of the original dentin structure was observed” in experiment [2] (deep cavity model, together with GI cement, FIG. 11); “regeneration of physiologic tertiary dentin (TD) which was continuous with the odontoblast processes of the original dentin structure was observed” in experiment [2] (shallow cavity model, FIG. 10); “new physiologic dentin (TD) which was continuous with the odontoblast processes of the original dentin was formed” in experiment [3].

Values taken from US10844092B2, “Peptide for promoting regeneration of dentin or dental pulp tissue” (HysensBio Co., Ltd., priority 2016, dated 2020).
